{"source": "patent US20190240176A1", "about": "“METHODS OF TREATMENT FOR MYELOID LEUKEMIA” (The University of Georgia Research Foundation, Inc., priority 2016, published 2019)", "key": {"[1]": {"tested_on": "S6 kinase (pS6K), a downstream target of mTORC1 kinase", "test": "Western blotting for phospho-S6 kinase in K562 cells", "assay_type": "cell-based, human", "conditions": "shBCAT1-d or 20 mM Gbp for 24 h, FIG. 3J"}, "BCAT2": {"biological_target": "T1, BCAT2 (Homo sapiens, UniProt O15382)", "T1 sequence (O15382 28-392)": "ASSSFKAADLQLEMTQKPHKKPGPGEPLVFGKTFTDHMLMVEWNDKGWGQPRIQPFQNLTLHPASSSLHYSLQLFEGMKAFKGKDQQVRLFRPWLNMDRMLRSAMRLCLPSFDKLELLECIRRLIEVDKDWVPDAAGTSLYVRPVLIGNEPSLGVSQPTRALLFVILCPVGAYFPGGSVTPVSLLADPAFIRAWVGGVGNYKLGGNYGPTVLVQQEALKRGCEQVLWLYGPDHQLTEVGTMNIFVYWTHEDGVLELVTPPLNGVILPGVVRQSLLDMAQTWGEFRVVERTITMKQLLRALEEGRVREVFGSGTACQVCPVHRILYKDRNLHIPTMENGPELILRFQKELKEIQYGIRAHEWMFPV", "conditions": "literature reference 7; cited from earlier work"}, "[2]": {"tested_on": "human AML cell lines (MV4-11, U937, HL60)", "test": "Colony formation assay, human AML cell lines", "assay_type": "cell-based", "conditions": "FIG. 11G-I", "description": "(§1) The human BC-CML cell line K562, the human acute leukemia cell lines MV4-11 and U937 were maintained in Roswell Park Memorial Institute 1640 medium (RPMI-1640) with 10% FBS, 100 IU/ml penicillin and 100 μg/ml streptomycin. The human acute promyelocytic leukemia cell line HL60 was maintained in RPMI supplemented with 20% FBS. All human cell lines were obtained from ATCC, and cell line authentication testing was performed by ATCC-standardized STR analysis to verify their identity in July 2016. For the colony forming assays, the cells were transduced with lentiviral shRNA and plated in triplicate in 1.2% methylcellulose medium (R&D systems) supplemented with 100 IU/ml penicillin and 100 μg/ml streptomycin, 10% FBS. Where indicated, either BCAAs (L-Leucine, L-Valine, L-Isoleucine, 4 mM each, Sigma-Aldrich), L-alanyl-L-glutamine (4 mM, GlutaMax™, Life Technologies), rapamycin (50 nM, Tocris) or gabapentin (Gbp; Tokyo Chemical Industry Co.) was added to the medium. Gbp was freshly dissolved in PBS before use. Colonies were scored on days 9 to 14. […] Colonies were scored on days 7 to 10."}, "BCAT1": {"biological_target": "T2, BCAT1 (Homo sapiens, UniProt P54687)", "T2 sequence (P54687 1-386)": "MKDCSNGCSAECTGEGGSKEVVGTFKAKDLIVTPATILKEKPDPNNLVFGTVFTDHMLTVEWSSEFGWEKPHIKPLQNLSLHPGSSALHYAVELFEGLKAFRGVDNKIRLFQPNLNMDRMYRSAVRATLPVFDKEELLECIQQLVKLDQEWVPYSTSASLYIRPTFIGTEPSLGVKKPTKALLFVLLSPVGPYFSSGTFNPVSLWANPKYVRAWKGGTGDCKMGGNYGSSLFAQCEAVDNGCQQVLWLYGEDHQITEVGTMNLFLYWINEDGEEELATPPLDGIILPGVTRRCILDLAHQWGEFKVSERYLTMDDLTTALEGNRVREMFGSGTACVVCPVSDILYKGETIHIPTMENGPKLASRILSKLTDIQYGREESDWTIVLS", "conditions": "literature reference 7; cited from earlier work"}, "K562 human BC-CML cells": {"tested_on": "K562 human BC-CML cells", "test": "Colony formation assay, K562 cells", "assay_type": "cell-based", "conditions": "for leukemic colony formation: K562, Gabapentin in combination with Imatinib, 300 cells per well, scored on day 5, FIG. 14A", "description": "BCAT1 inhibition by Gabapentin is shown in FIG. 14A, leukemic colony formation by human blast crisis CML was attenuated in combination with the tyrosine kinase inhibitor Imatinib. […] Three hundred cells were plated per well in triplicate, and colonies were scored on day 5 (error bars indicates s.e.m. *p<0.05, **p<0.01). Inhibition of leukemic colony formation by gabapentin (Gbp) and its structural analogs was also investigated (FIG. 14B). The colony-forming ability of K562 human CML cells treated with the indicated chemicals was investigated. One hundred fifty cells were plated per well in triplicate, and colonies were scored on day 14 (error bars indicates s.e.m. ***p<0.001 compared with the vehicle control).\nas §1"}, "[3]": {"tested_on": "primary human BC-CML cells", "test": "Colony formation assay, patient-derived primary BC-CML cells", "assay_type": "cell-based", "conditions": "patient-derived primary leukemia cells; FIGS. 3D-E, 11E-F", "description": "(§2) Patient blood samples were obtained at the Institute of Medical Science, the University of Tokyo (IMSUT) Hospital with written informed consent according to the procedures approved by the Institutional Review Board. Mononuclear cells from the subjects were viably frozen and stored in liquid nitrogen. For in vitro colony formation with BCAT1 knockdown, primary hCD34^+ cells sorted from patient bone marrow samples were cultured in IMDM supplemented with 10% FBS, 100 IU/ml penicillin and 100 μg/ml streptomycin, 55 μM 2-mercaptoethanol, SCF, IL-3, IL-6, FLT3L and TPO. After 24 h of culture, the cells were transduced with lentiviral shRNA (cloned in FG12-UbiC-GFP), and the GFP-positive infected cells were sorted at 48 h, and 5,000-50,000 cells were plated in complete methylcellulose medium (Methocult H4435, StemCell Technologies). For the colony forming assays with Gbp, sorted hCD34^+ cells from the primary patient specimens were cultured in complete methylcellulose medium with the indicated concentrations of Gbp. Colonies were scored on days 9 to 14."}, "normal HSPCs": {"tested_on": "normal HSPCs", "test": "Colony formation assay, normal HSPCs (LSK cells)", "assay_type": "cell-based, mouse", "conditions": "FIGS. 9E-F", "description": "as §1"}, "[4]": {"tested_on": "intracellular BCAAs in K562 cells", "test": "Intracellular amino acid quantification in K562 cells", "assay_type": "cell-based, human", "conditions": "compared with the controls, FIGS. 12A-B", "description": "Leukemia cells or peripheral blood samples drawn from mice bearing myeloid leukemia were used for amino acid and keto acid analysis by high-performance liquid chromatography (HPLC)-fluorescence detection, as described^32-34. In brief, two hundred thousand live leukemia cells per sample were sorted and washed twice with ice-cold PBS to remove media components prior to amino acid extraction. The blood plasma was prepared by centrifugation of the peripheral blood samples at 2,000×g at 4° C. for 10 min. […] For amino acid quantification, the dried samples were treated with the amine-reactive 4-fluoro-7-nitro-2,1,3-benzoxadizole (NBD-F) to derivatize the amino acids. […] The gradient conditions were as follows: t=0 min, 10% B; t=20 min, 50% B; and t=30 min, 100% B. For NBD-Asn, Ser, Thr, Gln and Phe analysis, 25 mM citrate buffer containing 25 mM sodium perchlorate (pH 4.4) was used as the mobile phase A. NBD-amino acids were detected with excitation and emission wavelengths of 470 and 530 nm, respectively. For keto acid quantification, dried samples were treated with o-phenylenediamine (OPD) to derivatize alpha-keto acids, followed by liquid-liquid extraction with ethyl acetate. […] The fluorescence detection was carried out at the emission wavelength of 410 nm with excitation of 350 nm."}, "[5]": {"conditions": "in water and in both basic and acidic aqueous solutions; cited from earlier work"}, "primary human AML cells": {"tested_on": "primary human AML cells", "test": "Colony formation assay, primary de novo AML cells", "assay_type": "cell-based", "conditions": "FIG. 3G", "description": "as §2"}, "[6]": {"tested_on": "primary Lin- BC-CML cells", "test": "Colony formation assay, primary Lin- BC-CML cells", "assay_type": "cell-based", "conditions": "primary mouse Lin- BC-CML cells plated with Gbp; FIG. 2B", "description": "as §1"}}}
{"compound": "NCC1(CC(=O)O)CCCCC1", "note": "[Gbp, 1-(aminomethyl)cyclohexane acetic acid]", "values": [{"measurement": "phosphorylation of S6 kinase (pS6K)", "setting": "[1]", "result": "significantly reduced"}, {"measurement": "inhibition of the transaminase activity of BCAT2", "setting": "BCAT2", "result": "but not that of BCAT2"}, {"measurement": "clonal growth", "setting": "[2]", "result": "effectively inhibited"}, {"measurement": "inhibition of the transaminase activity of BCAT1", "setting": "BCAT1", "result": "specifically and competitively inhibit"}, {"measurement": "leukemic colony formation", "setting": "K562 human BC-CML cells", "result": "attenuated"}, {"measurement": "colony-forming ability", "setting": "K562 human BC-CML cells; K562 human BC-CML, FIG. 11A-D", "result": "markedly inhibited"}, {"measurement": "colony-forming ability", "setting": "[3]", "result": "markedly inhibited"}, {"measurement": "colony-forming ability of normal HSPCs", "setting": "normal HSPCs", "result": "only minimally affected"}, {"measurement": "intracellular concentrations of all three BCAAs", "setting": "[4]", "result": "significantly reduced"}, {"measurement": "solubility", "setting": "[5]", "result": "freely soluble"}, {"measurement": "clonal growth", "setting": "primary human AML cells", "result": "effectively inhibited"}, {"measurement": "clonogenic growth", "setting": "[6]", "result": "dose-dependent impairment"}, {"measurement": "colony size", "setting": "[6]", "result": "formed smaller colonies"}]}
{"compound": "Cc1ccc(NC(=O)c2ccc(CN3CCN(C)CC3)cc2)cc1Nc1nccc(-c2cccnc2)n1", "note": "[Imatinib]", "values": [{"measurement": "leukemic colony formation", "setting": "K562 human BC-CML cells", "result": "attenuated"}]}
